Results as given in the supplement of paper PMC8024199.
± gives the standard deviation of the averaged measurements.

What was measured:
Assay in all cases: drug sensitivity score (DSS) (DSS score); higher = more sensitive (stronger growth inhibition); extreme values may be limits of the assay
Ly-BP RUNX1 p.R204Q = system: Ly-BP RUNX1 p.R204Q
Method: (§1)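 Ex vivo drug sensitivity and resistance testing of primary bone marrow mononuclear cells from blast-phase CML patients (RUNX1-mutated and RUNX1 wild-type) against an oncology drug library. Each drug was tested at five concentrations over a 10,000-fold range, with viability normalised to DMSO controls. The drug sensitivity score (DSS) was computed from the dose-response curve.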

Ly-BP RUNX1 wild-1 = system: Ly-BP RUNX1 wild-1
Method: as §1

My-BP RUNX1 wild-2 = system: My-BP RUNX1 wild-2
Method: as §1

My-BP RUNX1 wild-3 = system: My-BP RUNX1 wild-3
Method: as §1

My-BP RUNX1 wild-4 = system: My-BP RUNX1 wild-4
Method: as §1

Mye-BP RUNX1 p.K117* = system: Mye-BP RUNX1 p.K117*
Method: as §1

Mye-BP RUNX1 p.R107C = system: Mye-BP RUNX1 p.R107C
Method: as §1

Mye-BP RUNX1 p.R162K = system: Mye-BP RUNX1 p.R162K
Method: as §1

[1] = system: Ba/F3 P210-BCR-ABL1 RUNX1-/- (mouse)
Outline: (§2)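 Each value is a drug sensitivity score derived from CellTiter-Glo luminescence scaled between vehicle and positive-control wells. Mouse Ba/F3 clones, CRISPR/Cas9-edited at a target exon or edited controls, were seeded at 10,000 cells per well in RPMI with 10% FBS and treated for 72 h at 37 °C and 5% CO2. Compounds from a 528-compound library were tested at five concentrations over a 10,000-fold range, and scores were averaged over two replicates.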

[2] = system: Ba/F3 P210-BCR-ABL1 RUNX1-/mut (mouse)
Outline: as §2

[3] = system: Ba/F3 P210-BCR-ABL1 RUNX1wt/wt control (mouse)
Outline: as §2

Row | Compound | drug sensitivity score [1] | drug sensitivity score [2] | drug sensitivity score [3] | also measured
1 | CCc1c2c(nc3ccc(OC(=O)N4CCC(N5CCCCC5)CC4)cc13)-c1cc3c(c(=O)n1C2)COC(=O)[C@]3(O)CC [Irinotecan] | – | – | – | drug sensitivity score (Ly-BP RUNX1 p.R204Q): 7.87; drug sensitivity score (Ly-BP RUNX1 wild-1): 0; drug sensitivity score (My-BP RUNX1 wild-2): 8.65; drug sensitivity score (My-BP RUNX1 wild-3): 2.58; drug sensitivity score (My-BP RUNX1 wild-4): 2.52; drug sensitivity score (Mye-BP RUNX1 p.K117*): 8.6; drug sensitivity score (Mye-BP RUNX1 p.R107C): 7; drug sensitivity score (Mye-BP RUNX1 p.R162K): 12.8
2 | CO[C@H]1/C=C\C=C(/C)C(=O)NC2=CC(=O)C(NCCN(C)C)=C(C[C@@H](C)C[C@H](OC)[C@H](O)[C@@H](C)/C=C(\C)[C@@H]1OC(N)=O)C2=O [Alvespimycin] | – | – | – | drug sensitivity score (Ly-BP RUNX1 p.R204Q): 12.8; drug sensitivity score (Ly-BP RUNX1 wild-1): 15.4; drug sensitivity score (My-BP RUNX1 wild-2): 14.6; drug sensitivity score (My-BP RUNX1 wild-3): 4.98; drug sensitivity score (My-BP RUNX1 wild-4): 12.3; drug sensitivity score (Mye-BP RUNX1 p.K117*): 17; drug sensitivity score (Mye-BP RUNX1 p.R107C): 15.7; drug sensitivity score (Mye-BP RUNX1 p.R162K): 18.6
3 | COc1cccc2cc(-c3nc([C@H]4CC[C@H](C(=O)O)CC4)n4ncnc(N)c34)[nH]c12 [OSI-027] | – | – | – | drug sensitivity score (Ly-BP RUNX1 p.R204Q): 18.5; drug sensitivity score (Ly-BP RUNX1 wild-1): 7.2; drug sensitivity score (My-BP RUNX1 wild-2): 5.24; drug sensitivity score (My-BP RUNX1 wild-3): 4.81; drug sensitivity score (My-BP RUNX1 wild-4): 3.46; drug sensitivity score (Mye-BP RUNX1 p.K117*): 7.8; drug sensitivity score (Mye-BP RUNX1 p.R107C): 8.4; drug sensitivity score (Mye-BP RUNX1 p.R162K): 11.8
4 | CN(N=O)C(=O)N[C@@H](C=O)[C@@H](O)[C@H](O)[C@H](O)CO [Streptozocin] | – | – | – | drug sensitivity score (Ly-BP RUNX1 p.R204Q): 0; drug sensitivity score (Ly-BP RUNX1 wild-1): 0; drug sensitivity score (My-BP RUNX1 wild-2): 0; drug sensitivity score (My-BP RUNX1 wild-3): 0; drug sensitivity score (My-BP RUNX1 wild-4): 0; drug sensitivity score (Mye-BP RUNX1 p.K117*): 3.8; drug sensitivity score (Mye-BP RUNX1 p.R107C): 0; drug sensitivity score (Mye-BP RUNX1 p.R162K): 0
5 | C[C@@H](Oc1cc(-n2cnc3ccc(CN4CCN(C)CC4)cc32)sc1C(N)=O)c1ccccc1C(F)(F)F | 22.2 ± 1.5 | 20.6 ± 2.3 | 15.8 | –
6 | CNC(=O)c1ccc(N2C(=S)N(c3ccc(C#N)c(C(F)(F)F)c3)C(=O)C2(C)C)cc1F [Enzalutamide] | 1.15 ± 1.6 | 1.05 ± 1.5 | 0.3 ± 0.14 | –
7 | Nc1cc(COc2c(Cl)cc(C[C@H](N)C(=O)O)cc2Cl)c2oc(-c3ccccc3)nc2c1 [JPH203] | 0 | 0 | 0 | –
8 | CCN1C(=O)CNc2ncc(-c3ccc(-c4nc[nH]n4)nc3C)nc21 [CC-115] | 12.6 ± 2.9 | 12.8 ± 1.9 | 7.65 ± 0.21 | –
9 | Cc1nc(C(=O)NCC(=O)O)c(O)c2ccc(Oc3ccccc3)cc12 [Roxadustat] | 0.6 ± 0.85 | 0.95 ± 1.3 | 0 | –
10 | O=c1[nH]c(=O)n([C@H]2C[C@H](O)[C@@H](CO)O2)cc1C(F)(F)F [Trifluridine] | 15.5 ± 0.14 | 14.6 ± 0.85 | 8.45 ± 0.21 | –
11 | O=C(Nc1cnn2ccc(N3CCC[C@@H]3c3cc(F)ccc3F)nc12)N1CC[C@H](O)C1 [Larotrectinib] | 0 | 0.05 ± 0.071 | 0.7 ± 0.71 | –
12 | Cc1[nH]nc(C(F)(F)F)c1Cc1sc2c(c1C(=O)N1C[C@](C)(O)CO1)c(=O)n(C)c(=O)n2C(C)C [AZD3965] | 9.05 ± 3.5 | 6.3 ± 0.99 | 0 | –
13 | CCN1CCN(c2ccc(Nc3cc(N(C)C(=O)Nc4c(Cl)c(OC)cc(OC)c4Cl)ncn3)cc2)CC1 [Infigratinib] | 0 | 0 | 0 | –
14 | CS(=O)(=O)c1ccc(-c2cnc(N)c(C(=O)Nc3ccccc3)n2)cc1 [VE-821] | 5.55 ± 4.5 | 4.3 ± 4.8 | 1.8 | –
15 | Cn1cc(-c2ccc(F)c(C(F)(F)F)c2)nc1C1CCN(c2ncnc3[nH]ncc23)CC1 | 1.55 ± 1.3 | 0.7 ± 0.99 | 0 | –
16 | CCCCCCCCCCCCCCCCOP(=O)([O-])OCC[N+](C)(C)C [Miltefosine] | 7.05 ± 0.21 | 5.5 ± 1.3 | 2 ± 1.4 | –
17 | CC(C)Oc1ccc(-c2nn([C@@H](C)c3oc4ccc(F)cc4c(=O)c3-c3cccc(F)c3)c3ncnc(N)c23)cc1F [TGR-1202] | 3.4 ± 0.99 | 1.2 ± 1.4 | 0 | –
18 | COc1ccc(COc2cc3oc(=O)c4cc(C(C)O)ccc4c3cc2OC)cc1 (stereo not given) [Palomid-529] | 0.05 ± 0.071 | 1.7 ± 2.4 | 0.4 ± 0.42 | –
19 | CNc1nc(-c2ccc3c(N)n[nH]c3c2)cc(N2C[C@@H](C(=O)NC3CCCCC3)CC[C@H]2C)n1 | 7.15 ± 0.35 | 4 ± 2.3 | 0 | –
20 | C[C@H](Nc1ncnc2nc[nH]c12)c1cc2cccc(Cl)c2c(=O)n1-c1ccccc1 [Duvelisib] | 2.6 ± 0.99 | 2.35 ± 3.3 | 0 | –

Row | Compound | drug sensitivity score [1] | drug sensitivity score [2] | drug sensitivity score [3] | also measured
21 | C=CCn1c(=O)c2cnc(Nc3ccc(N4CCN(C)CC4)cc3)nc2n1-c1cccc(C(C)(C)O)n1 [AZD1775] | 22.8 ± 3.5 | 20.8 ± 1.5 | 19.1 ± 0.14 | –
22 | CCCOc1ccn2c(C(C)=O)cc(-c3ccccc3S(C)(=O)=O)c2c1 [GSK2801] | 0.1 ± 0.14 | 2.3 ± 3.2 | 0 | –
23 | COC(=O)c1ccc([C@H]2c3[nH]c4ccccc4c3C[C@H](C(=O)OC)N2C(=O)CCl)cc1 [RSL3] | 0 | 0.3 ± 0.42 | 0 | –
24 | C[C@H]1CN(C2COC2)CCN1c1ccc(Nc2cc(-c3ccnc(N4CCn5c(cc6c5CC(C)(C)C6)C4=O)c3CO)cn(C)c2=O)nc1 [GDC-0853] | 0 | 0 | 0 | –
25 | Cn1cc(C[C@@H](N)C(=O)O)c2ccccc21 [1-methyl-D-tryptophan] | 0 | 0 | 0 | –
26 | NC(=O)N1CCC(CC(=O)N2CCC([C@H]3c4ncc(Br)cc4CCc4cc(Cl)cc(Br)c43)CC2)CC1 [Lonafarnib] | 12.1 ± 17 | 13.8 ± 9.8 | 8.2 ± 0.14 | –
27 | Cc1cc(Nc2ncnc3ccc(NC4=NC(C)(C)CO4)cc23)ccc1Oc1ccn2ncnc2c1 [Tucatinib] | 0.4 ± 0.57 | 0 | 0 | –
28 | CCCCOc1nc(N)c2c(n1)N(Cc1cccc(CN3CCCC3)c1)CC(=O)N2 [Vesatolimod] | 2.65 ± 3.8 | 3.25 ± 3.8 | 1.65 ± 0.35 | –
29 | COc1cc(C)c(/C=C/C(C)=C/C=C/C(C)=C/C(=O)O)c(C)c1C [Acitretin] | 0 | 1.3 ± 1.8 | 0 | –
30 | Nc1cc(C(F)(F)F)c(-c2cc(N3CCOCC3)nc(N3CCOCC3)n2)cn1 [Buparlisib] | 8.6 ± 0.42 | 8.7 ± 2.3 | 4.5 ± 0.57 | –
31 | CN1CCN(C2CCC(n3cc(-c4ccc(Oc5ccccc5)cc4)c4c(N)ncnc43)CC2)CC1 (stereo not given) | 23.4 ± 0.28 | 17.9 ± 1.1 | 16.6 ± 0.71 | –
32 | C[C@@H](Oc1ccc2[nH]nc(/C=C/c3cnn(CCO)c3)c2c1)c1c(Cl)cncc1Cl | 14.5 ± 3.5 | 8.95 ± 1.5 | 6.65 ± 0.21 | –
33 | C[C@H]1CNCCCN1S(=O)(=O)c1cccc2cncc(F)c12 [Ripasudil] | 0 | 0 | 0 | –
34 | CNS(=O)(=O)Nc1nccc(Cc2c(C)c3ccc(Oc4ncccn4)cc3oc2=O)c1F | 2.4 ± 0.14 | 0.3 ± 0.42 | 0 | –
35 | CC(=O)N(O)CCCCCNC(=O)CCC(=O)N(O)CCCCCNC(=O)CCC(=O)N(O)CCCCCN [Deferoxamine] | 6.9 ± 0.71 | 6.6 ± 1.4 | 0.9 ± 0.99 | –
36 | N#CC(c1ccnc(OCc2ccc(CN3CCOCC3)cc2)n1)c1nc2ccccc2s1 (stereo not given) [Bentamapimod] | 2.55 ± 1.6 | 0.75 ± 1.1 | 4.25 ± 0.49 | –
37 | COC(=O)N[C@@H](C)CNc1nccc(-c2cn(C(C)C)nc2-c2cc(Cl)cc(NS(C)(=O)=O)c2F)n1 [Encorafenib] | 1.35 ± 0.071 | 2.15 ± 0.64 | 0.05 ± 0.071 | –
38 | Cn1c(=O)n(-c2ccc(C(C)(C)C#N)cc2)c2c3cc(-c4cnc5ccccc5c4)ccc3ncc21 [Dactolisib] | 16.9 ± 0.42 | 18.3 ± 0.28 | 14.4 ± 0.35 | –
39 | CCn1c(C(=O)N(C2CC2)C2CC2)cc2c3c(ncn3C)c(Nc3cc(C)n(C)n3)nc21 | 0.35 ± 0.49 | 0 | 0 | –
40 | C=CC(=O)Nc1cccc(Nc2nc(Nc3ccc(OCCOC)cc3)ncc2F)c1 [Spebrutinib] | 0 | 0 | 0 | –
